Each structure is given as a SMILES string.

Usually Ki stands for a dissociation constant, usually derived from enzyme kinetics or from competition with a known ligand. Read a high Ki as a looser hold on the target.

T2 sequence (Q9QYN8 whole entry): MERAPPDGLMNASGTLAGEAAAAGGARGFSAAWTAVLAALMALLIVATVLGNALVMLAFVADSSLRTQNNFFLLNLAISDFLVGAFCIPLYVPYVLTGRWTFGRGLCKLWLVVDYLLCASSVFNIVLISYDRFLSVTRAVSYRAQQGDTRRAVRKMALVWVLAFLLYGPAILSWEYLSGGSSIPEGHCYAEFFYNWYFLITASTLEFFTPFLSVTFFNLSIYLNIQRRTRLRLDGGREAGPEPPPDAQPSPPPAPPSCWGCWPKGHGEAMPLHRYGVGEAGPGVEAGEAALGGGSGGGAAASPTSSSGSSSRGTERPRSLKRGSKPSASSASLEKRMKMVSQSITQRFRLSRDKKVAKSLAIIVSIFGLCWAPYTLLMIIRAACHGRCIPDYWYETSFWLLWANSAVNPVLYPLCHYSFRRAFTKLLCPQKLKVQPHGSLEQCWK

The first test deals with T1, human H3 receptor (Homo sapiens, UniProt Q9Y5N1).
T1 construct: expressed in transfected cells
T1 sequence (Q9Y5N1 whole entry): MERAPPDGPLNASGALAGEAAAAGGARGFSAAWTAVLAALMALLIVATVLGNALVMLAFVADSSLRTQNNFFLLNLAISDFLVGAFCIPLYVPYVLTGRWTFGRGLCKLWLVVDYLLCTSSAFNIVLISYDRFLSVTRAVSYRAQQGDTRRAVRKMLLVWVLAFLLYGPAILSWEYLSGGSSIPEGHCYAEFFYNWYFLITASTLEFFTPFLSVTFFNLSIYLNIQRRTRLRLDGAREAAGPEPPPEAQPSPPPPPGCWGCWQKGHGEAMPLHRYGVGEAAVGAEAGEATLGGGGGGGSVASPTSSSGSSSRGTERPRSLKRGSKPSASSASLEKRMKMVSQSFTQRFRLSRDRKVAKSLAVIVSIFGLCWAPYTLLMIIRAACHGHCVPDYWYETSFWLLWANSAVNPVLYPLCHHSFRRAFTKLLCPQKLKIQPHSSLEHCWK
As to the kind of experiment: Cyclic AMP accumulation, SK-N-MC subline with reporter construct and human H3 receptor. The following applies: cAMP accumulation, SK-N-MC reporter cells expressing human H3; average of results; read-out: Human pA2 (converted). The test is classed as cell-based. The source says: (§1) Sublines of SK-N-MC cells were created that expressed a reporter construct and either the human or rat H3 receptor. The pA2 values were obtained as described by Barbier et al. (2004). Data for compounds tested in these assays are presented in Table 3, as an average of the results obtained (NT=not tested).
As for `CCC(O)c1ccc(C(=O)N2CCCN(C3CCC3)CC2)cc1` (centres unmarked) [Example 19, (4-Cyclobutyl-[1,4]diazepan-1-yl)-[4-(1-hydroxy-propyl)-phenyl]-methanone], the Kb is 0.182 nM.

The next test concerns the target T2, rat H3 receptor (Rattus norvegicus, UniProt Q9QYN8).
T2 construct: expressed in transfected cells
As to the kind of experiment: Cyclic AMP accumulation, SK-N-MC subline with reporter construct and rat H3 receptor. The test is classed as cell-based. As to conditions: cAMP accumulation, SK-N-MC reporter cells expressing rat H3; average of results; read-out: Rat pA2 (converted).
Source text: as §1
For the compound `CC(C)N1CCN(C(=O)c2ccc(CO)cc2)CC1` [Example 6, (4-Hydroxymethyl-phenyl)-(4-isopropyl-piperazin-1-yl)-methanone], the Kb is 295 nM.

As for `CCC(O)c1ccc(C(=O)N2CCCN(C3CCC3)CC2)cc1` (centres unmarked) [Example 19, (4-Cyclobutyl-[1,4]diazepan-1-yl)-[4-(1-hydroxy-propyl)-phenyl]-methanone], the Kb was 3.31 nM.

The target in the next test is T2, rat H3 receptor. Kind of test: H3 receptor binding, cloned rat H3 receptor stably expressed in SK-N-MC cells. As to conditions: average of results. As for the experimental part:
(§2) Binding of compounds to the cloned human and rat H3 receptors, stably expressed in SK-N-MC cells, was performed as described by Barbier, A. J. et al. (Br. J. Pharmacol. 2004, 143(5), 649-661). Data for compounds tested in these assays are presented in Table 1 (human) and Table 2 (rat), as an average of the results obtained.
The compound `CCC(O)c1ccc(C(=O)N2CCCN(C(C)C)CC2)cc1` (centres unmarked) [Example 10, [4-(1-Hydroxy-propyl)-phenyl]-(4-isopropyl-[1,4]diazepan-1-yl)-methanone] registered a Ki of 509 nM.

Consider `CC(C)N1CCCN(C(=O)c2ccc(C(O)c3ccccc3)cc2)CC1` (centres unmarked) [Example 11, [4-(Hydroxy-phenyl-methyl)-phenyl]-(4-isopropyl-[1,4]diazepan-1-yl)-methanone], for which the affinity corresponds to a Ki of 78 nM.

`CCC(O)c1ccc(C(=O)N2CCCN(C3CC3)CC2)cc1` (centres unmarked) [Example 31, (4-Cyclopropyl-[1,4]diazepan-1-yl)-[4-(1-hydroxy-propyl)-phenyl]-methanone] registered a Ki of 205 nM.

`O=C(c1ccc(C2CCCCC2)cc1)N1CCN(C2CCC2)CC1` [Example 36, (4-Cyclobutyl-piperazin-1-yl)-(4-cyclohexyl-phenyl)-methanone] showed an inhibition constant Ki of 79 nM.

A further test has as its target T1, human H3 receptor. Kind of test: H3 receptor binding, cloned human H3 receptor stably expressed in SK-N-MC cells. The following applies: average of results. As for the experimental part: as §2
For `CC(C)N1CCN(C(=O)c2ccc(C(O)C3CCCCC3)cc2)CC1` (centres unmarked) [Example 1, [4-(Cyclohexyl-hydroxy-methyl)-phenyl]-(4-isopropyl-piperazin-1-yl)-methanone], the inhibitory constant (Ki) worked out at 7 nM.

In turn, `CCC(O)c1ccc(C(=O)N2CCN(C(C)C)CC2)cc1` (centres unmarked) [Example 2, [4-(1-Hydroxy-propyl)-phenyl]-(4-isopropyl-piperazin-1-yl)-methanone] registered a Ki of 32 nM.

`CC(C)N1CCN(C(=O)c2ccc(C(O)c3ccccc3)cc2)CC1` (centres unmarked) [Example 3, [4-(Hydroxy-phenyl-methyl)-phenyl]-(4-isopropyl-piperazin-1-yl)-methanone] came in with a Ki of 14 nM.

`CC(O)c1ccc(C(=O)N2CCN(C(C)C)CC2)cc1` (centres unmarked) [Example 4, [4-(1-Hydroxy-ethyl)-phenyl]-(4-isopropyl-piperazin-1-yl)-methanone] yielded an inhibition constant (Ki) of 58 nM.

Compound `CC(C)C(O)c1ccc(C(=O)N2CCN(C(C)C)CC2)cc1` (centres unmarked) [Example 5, [4-(1-Hydroxy-2-methyl-propyl)-phenyl]-(4-isopropyl-piperazin-1-yl)-methanone] displayed a Ki of 6 nM.

In the case of `CC(C)N1CCN(C(=O)c2ccc(CO)cc2)CC1` [Example 6, (4-Hydroxymethyl-phenyl)-(4-isopropyl-piperazin-1-yl)-methanone], the Ki was found to be 164 nM.

`CC(C)N1CCCN(C(=O)c2ccc(CO)cc2)CC1` [Example 8, (4-Hydroxymethyl-phenyl)-(4-isopropyl-[1,4]diazepan-1-yl)-methanone] gave an inhibitory constant (Ki) of 31 nM.

As to `CC(C)N1CCCN(C(=O)c2ccc(C(=O)C3CCCCC3)cc2)CC1` [Example 9, (4-Cyclohexanecarbonyl-phenyl)-(4-isopropyl-[1,4]diazepan-1-yl)-methanone], affinity was put at a Ki of 3 nM.

Compound `CCC(O)c1ccc(C(=O)N2CCCN(C(C)C)CC2)cc1` (centres unmarked) [Example 10, [4-(1-Hydroxy-propyl)-phenyl]-(4-isopropyl-[1,4]diazepan-1-yl)-methanone] showed a Ki of 9 nM.

`CC(C)N1CCCN(C(=O)c2ccc(C(O)c3ccccc3)cc2)CC1` (centres unmarked) [Example 11, [4-(Hydroxy-phenyl-methyl)-phenyl]-(4-isopropyl-[1,4]diazepan-1-yl)-methanone]: the inhibition constant Ki was determined as 2 nM.

In turn, `CC(O)c1ccc(C(=O)N2CCCN(C(C)C)CC2)cc1` (centres unmarked) [Example 12, [4-(1-Hydroxy-ethyl)-phenyl]-(4-isopropyl-[1,4]diazepan-1-yl)-methanone] came in with an inhibition constant Ki of 17 nM.

`CC(C)C(O)c1ccc(C(=O)N2CCCN(C(C)C)CC2)cc1` (centres unmarked) [Example 13, [4-(1-Hydroxy-2-methyl-propyl)-phenyl]-(4-isopropyl-[1,4]diazepan-1-yl)-methanone] came in with a Ki of 6 nM.

In the case of `O=C(c1ccc(C(O)c2ccccc2)cc1)N1CCN(C2CCC2)CC1` (centres unmarked) [Example 14, (4-cyclobutyl-piperazin-1-yl)-[4-(hydroxy-phenyl-methyl)-phenyl]-methanone], the Ki is 4 nM.

As for `CCC(O)c1ccc(C(=O)N2CCN(C3CCC3)CC2)cc1` (centres unmarked) [Example 15, (4-Cyclobutyl-piperazin-1-yl)-[4-(1-hydroxy-propyl)-phenyl]-methanone], affinity was put at a Ki of 12 nM.

With `CC(C)C(O)c1ccc(C(=O)N2CCN(C3CCC3)CC2)cc1` (centres unmarked) [Example 16, (4-Cyclobutyl-piperazin-1-yl)-[4-(1-hydroxy-2-methyl-propyl)-phenyl]-methanone], the Ki was found to be 15 nM.

For the compound `O=C(c1ccc(C(O)C2CCCCC2)cc1)N1CCN(C2CCC2)CC1` (centres unmarked) [Example 17, (4-Cyclobutyl-piperazin-1-yl)-[4-(cyclohexyl-hydroxy-methyl)-phenyl]-methanone], the Ki worked out at 4 nM.

Compound `O=C(c1ccc(CO)cc1)N1CCN(C2CCC2)CC1` [Example 18, (4-Cyclobutyl-piperazin-1-yl)-(4-hydroxymethyl-phenyl)-methanone] came in with an inhibition constant (Ki) of 43 nM.

In turn, `CCC(O)c1ccc(C(=O)N2CCCN(C3CCC3)CC2)cc1` (centres unmarked) [Example 19, (4-Cyclobutyl-[1,4]diazepan-1-yl)-[4-(1-hydroxy-propyl)-phenyl]-methanone] had a Ki of 1 nM.

`O=C(c1ccc(C(O)C2CCCCC2)cc1)N1CCCN(C2CCC2)CC1` (centres unmarked) [Example 20, (4-Cyclobutyl-[1,4]diazepan-1-yl)-[4-(cyclohexyl-hydroxy-methyl)-phenyl]-methanone] came in with an inhibition constant (Ki) of 1 nM.

As to `O=C(c1ccc(C(O)c2ccccc2)cc1)N1CCCN(C2CCC2)CC1` (centres unmarked) [Example 21, (4-Cyclobutyl-[1,4]diazepan-1-yl)-[4-(hydroxy-phenyl-methyl)-phenyl]-methanone], the inhibition constant Ki came to 1 nM.

Turning to `CC(C)C(O)c1ccc(C(=O)N2CCCN(C3CCC3)CC2)cc1` (centres unmarked) [Example 22, (4-Cyclobutyl-[1,4]diazepan-1-yl)-[4-(1-hydroxy-2-methyl-propyl)-phenyl]-methanone], the affinity, expressed as Ki, was 1 nM.

`O=C(c1ccc(CO)cc1)N1CCCN(C2CCC2)CC1` [Example 23, (4-Cyclobutyl-[1,4]diazepan-1-yl)-(4-hydroxymethyl-phenyl)-methanone] gave a Ki of 2 nM.

`O=C(c1ccc(C(O)C2CCCCC2)cc1)N1CCN(C2CC2)CC1` (centres unmarked) [Example 24, [4-(Cyclohexyl-hydroxy-methyl)-phenyl]-(4-cyclopropyl-piperazin-1-yl)-methanone]: affinity was put at a Ki of 19 nM.

Consider `O=C(c1ccc(C(O)c2ccccc2)cc1)N1CCN(C2CC2)CC1` (centres unmarked) [Example 25, (4-Cyclopropyl-piperazin-1-yl)-[4-(hydroxy-phenyl-methyl)-phenyl]-methanone], for which the affinity, expressed as Ki, was 59 nM.

`CC(C)C(O)c1ccc(C(=O)N2CCN(C3CC3)CC2)cc1` (centres unmarked) [Example 26, (4-Cyclopropyl-piperazin-1-yl)-[4-(1-hydroxy-2-methyl-propyl)-phenyl]-methanone] returned a Ki of 84 nM.

`O=C(c1ccc(CO)cc1)N1CCCN(C2CC2)CC1` [Example 28, (4-Cyclopropyl-[1,4]diazepan-1-yl)-(4-hydroxymethyl-phenyl)-methanone]: the affinity corresponds to a Ki of 20 nM.

On to `CCC(O)c1ccc(C(=O)N2CCCN(C3CC3)CC2)cc1` (centres unmarked) [Example 31, (4-Cyclopropyl-[1,4]diazepan-1-yl)-[4-(1-hydroxy-propyl)-phenyl]-methanone], for which the inhibition constant (Ki) came to 4 nM.

For the compound `CCc1ccc(C(=O)N2CCN(C3CCC3)CC2)cc1` [Example 34, (4-Cyclobutyl-piperazin-1-yl)-(4-ethyl-phenyl)-methanone], the Ki is 28 nM.

For the compound `CC(C)c1ccc(C(=O)N2CCN(C3CCC3)CC2)cc1` [Example 35, (4-Cyclobutyl-piperazin-1-yl)-(4-isopropyl-phenyl)-methanone], the inhibition constant (Ki) stood at 11 nM.

As to `O=C(c1ccc(C2CCCCC2)cc1)N1CCN(C2CCC2)CC1` [Example 36, (4-Cyclobutyl-piperazin-1-yl)-(4-cyclohexyl-phenyl)-methanone], the inhibitory constant (Ki) is 9 nM.

`O=C(c1ccc(Cc2ccccc2)cc1)N1CCN(C2CCC2)CC1` [Example 37, (4-Benzyl-phenyl)-(4-cyclobutyl-piperazin-1-yl)-methanone] displayed a Ki of 7 nM.

Turning to `CCCc1ccc(C(=O)N2CCN(C3CCC3)CC2)cc1` [Example 38, (4-Cyclobutyl-piperazin-1-yl)-(4-propyl-phenyl)-methanone], the Ki was found to be 31 nM.

Turning to `CCCCc1ccc(C(=O)N2CCN(C3CCC3)CC2)cc1` [Example 39, (4-Butyl-phenyl)-(4-cyclobutyl-piperazin-1-yl)-methanone], the inhibition constant (Ki) turned out to be 24 nM.

`CCCCCc1ccc(C(=O)N2CCN(C3CCC3)CC2)cc1` [Example 40, (4-Cyclobutyl-piperazin-1-yl)-(4-pentyl-phenyl)-methanone] showed a Ki of 17 nM.

Regarding `CC(C)(O)c1ccc(C(=O)N2CCN(C3CCC3)CC2)cc1` [Example 41, (4-Cyclobutyl-piperazin-1-yl)-[4-(1-hydroxy-1-methyl-ethyl)-phenyl]-methanone], affinity was put at a Ki of 32 nM.

`O=C(c1ccc(C2(O)CCCCC2)cc1)N1CCN(C2CCC2)CC1` [Example 42, (4-Cyclobutyl-piperazin-1-yl)-[4-(1-hydroxy-cyclohexyl)-phenyl]-methanone]: the inhibitory constant (Ki) turned out to be 7 nM.

In turn, `CCC(O)c1ccc(C(=O)N2CCN(C3CC3)CC2)cc1` (centres unmarked) [Example 48, (4-Cyclopropyl-piperazin-1-yl)-[4-(1-hydroxy-propyl)-phenyl]-methanone] yielded an inhibition constant (Ki) of 221 nM.

For `O=C(c1ccc(CO)cc1)N1CCN(C2CC2)CC1` [Example 49, (4-Cyclopropyl-piperazin-1-yl)-(4-hydroxymethyl-phenyl)-methanone], the Ki was 586 nM.

`CCCCN1CCN(C(=O)c2ccc(CO)cc2)CC1` [Example 50, (4-Butyl-piperazin-1-yl)-(4-hydroxymethyl-phenyl)-methanone] registered a Ki of 55 nM.

As for `CCC(C)N1CCN(C(=O)c2ccc(CO)cc2)CC1` (centres unmarked) [Example 51, (4-sec-Butyl-piperazin-1-yl)-(4-hydroxymethyl-phenyl)-methanone], the inhibition constant (Ki) came to 530 nM.

For the origin of these results see patent US20080045507A1, “SUBSTITUTED BENZAMIDE MODULATORS OF THE HISTAMINE H3 RECEPTOR” (priority 2006, published 2008).
